Laboratory results taken from paper PMC5784158, “New 2-Aryl-9-methyl-β-carbolinium salts as Potential Acetylcholinesterase Inhibitor agents: Synthesis, Bioactivity and Structure–Activity Relationship” (Scientific Reports, 2018).
Read-outs that look alike come from different tables or passages of the source.

Columns and labels:
[1] = target: AChE (Musca domestica, UniProt Q7YWJ9); assay: biochemical; type: biochemical, fly
Procedure: AChE (E.C. 3.1.1.7) (BR, 200 u/mg) from fly’s head and BuChE (E.C. 3.1.1.8) (BR, 20 u/mg) from horse serum were purchased from Shanghai Yuanye biological technology Co. Ltd (Shanghai, China).
(§1) The inhibitory activities of the compounds against AChE were evaluated according to Ellman’s coupled enzyme assay[47] with the following modifications. 90 μL potassium phosphate buffer (PBS, 0.1 M, pH 7.4), 10 μL the solution of 2 units/mL AChE in 0.1 M PBS (pH 7.4) and 10 μL the solution of 200 μM test compounds in the mixed solution of methanol-PBS (pH 7.4) (1:9, V/V) were added to each well of a 96-well plate. The methanol-PBS solution was used as a blank control. After incubation at room temperature for 10 min, 60 μL the solution of 10 mM DTNB in PBS was added into each the well. The plate was placed on crushed ices and cooled for 20 min. To each the well was added 30 μL the solution of 7.5 mM ATCh in PBS (pH 7.4). […] Each test was performed in triplicate. Inhibition rates of the enzyme were calculated relative to a control sample. The inhibitory activities against BuChE were measured as described above for AChE, using 0.7 unit/mL BuChE and 4 mM BuTCh instead of AChE and ATCh as the enzyme and substrate, respectively.
(§2) The probit value of the average inhibition rate for each test concentration and the corresponding lg[concentration] were used to establish enzyme inhibition regression equation by the linear least-square fitting method. IC50 values were calculated from the equations.

[2] = target: T1, BuChE (Equus caballus, UniProt P81908); assay: BuChE inhibition, Ellman's method; type: biochemical, horse; conditions: read-out: IC50 ± S.D BuChE
T1 construct: BuChE (E.C. 3.1.1.8) (BR, 20 u/mg) from horse serum; purchased Shanghai Yuanye biological technology Co. Ltd (Shanghai, China); host or cells: horse serum (tissue-derived)
Excerpt: There is increasing recognition that BuChE may play an important role in cholinergic transmission[15],[16]. While the level of AChE decreases dramatically in the advanced stage of AD, BuChE increases in brain regions involved in cognitive functions[17],[18]. At this point, BuChE is able to compensate for AChE loss by hydrolyzing ACh. These observations lead one to believe that inhibition of both AChE and BuChE may contribute to improvement of current symptomatic treatments of AD. Therefore, the compounds in Table 2 were also evaluated for BuChE inhibition activity by means of Ellman’s method. […] AChE (E.C. 3.1.1.7) (BR, 200 u/mg) from fly’s head and BuChE (E.C. 3.1.1.8) (BR, 20 u/mg) from horse serum were purchased from Shanghai Yuanye biological technology Co. Ltd (Shanghai, China).
as §1, §2

[3] = test concentration of the compound 10 μM

T1 sequence (P81908 whole entry): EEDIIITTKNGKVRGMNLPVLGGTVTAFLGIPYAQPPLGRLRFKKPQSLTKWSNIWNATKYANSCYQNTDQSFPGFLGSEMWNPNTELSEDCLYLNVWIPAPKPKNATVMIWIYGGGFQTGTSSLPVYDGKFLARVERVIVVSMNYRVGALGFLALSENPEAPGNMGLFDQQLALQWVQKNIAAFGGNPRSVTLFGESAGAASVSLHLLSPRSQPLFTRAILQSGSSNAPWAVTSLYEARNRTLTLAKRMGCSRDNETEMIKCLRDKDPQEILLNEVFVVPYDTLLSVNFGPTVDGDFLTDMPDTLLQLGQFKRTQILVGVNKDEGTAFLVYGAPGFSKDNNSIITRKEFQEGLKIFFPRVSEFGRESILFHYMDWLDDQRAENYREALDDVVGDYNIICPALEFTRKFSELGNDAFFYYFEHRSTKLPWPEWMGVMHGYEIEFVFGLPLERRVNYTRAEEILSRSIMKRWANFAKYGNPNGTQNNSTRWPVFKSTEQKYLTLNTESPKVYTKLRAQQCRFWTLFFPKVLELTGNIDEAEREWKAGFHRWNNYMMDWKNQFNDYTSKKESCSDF
Sequence of AChE (Q7YWJ9 81-659): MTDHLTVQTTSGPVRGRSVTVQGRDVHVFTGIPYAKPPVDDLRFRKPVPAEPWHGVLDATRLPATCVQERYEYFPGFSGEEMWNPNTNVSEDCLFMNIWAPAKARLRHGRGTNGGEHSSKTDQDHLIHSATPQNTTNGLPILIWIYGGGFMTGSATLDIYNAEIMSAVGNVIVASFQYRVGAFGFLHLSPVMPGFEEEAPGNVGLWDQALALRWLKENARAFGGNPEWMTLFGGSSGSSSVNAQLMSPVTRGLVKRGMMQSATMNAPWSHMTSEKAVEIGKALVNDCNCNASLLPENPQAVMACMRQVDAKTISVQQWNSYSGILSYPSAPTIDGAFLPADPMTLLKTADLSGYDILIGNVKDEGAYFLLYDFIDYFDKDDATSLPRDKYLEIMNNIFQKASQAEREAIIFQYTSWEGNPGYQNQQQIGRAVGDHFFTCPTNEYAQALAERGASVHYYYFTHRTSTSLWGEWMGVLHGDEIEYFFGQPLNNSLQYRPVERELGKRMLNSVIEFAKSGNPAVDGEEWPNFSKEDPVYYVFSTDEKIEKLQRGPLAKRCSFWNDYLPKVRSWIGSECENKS

Compound	SI: selectivity index, ratio IC50 (BuChE)/IC50 (AChE) [1]	IC50 ([1]; read-out: IC50 ± S.D AChE) [µM]	Inhibition rate (%) [1, 3]	IC50 [2] [µM]	IC50 ([1]; Estimated values based on the results in Table 1 (inhibition rate at 10 μM), read-out: IC50 AChE, estimated values) [µM]	IC50 ([1]; 10 μM, read-out: IC50 AChE, NA) [µM]	inhibition at 10 µM ([1]; test concentration of the compound 10 μM, read-out: Inhibition rate (%)) [%]
Cn1c2c(c3ccccc31)CC[N+](c1ccccc1)=C2.[Br-] [Compound A1]	0.54	18.6 ± 2.93	40.9 ± 2.1 ij %	10.1 ± 1.66			
Cn1c2c(c3ccccc31)CC[N+](c1ccc(F)cc1)=C2.[Br-] [Compound A4]	4.22	14.1 ± 1.41	49.3 ± 2.2 fgh %	59.5 ± 2.72			
Cn1c2c(c3ccccc31)CC[N+](c1ccc(Cl)cc1)=C2.[Br-] [Compound A7]	5.57	7.58 ± 1.29	60.1 ± 2.9 d %	42.2 ± 0.86			
Cn1c2c(c3ccccc31)CC[N+](c1ccc(Br)cc1)=C2.[Br-] [Compound A10]	11.2	6.79 ± 2.29	60.3 ± 1.6 d %	76.2 ± 11			
Cn1c2c(c3ccccc31)CC[N+](c1ccc(I)cc1)=C2.[Br-] [Compound A13]	9.80	5.5 ± 0.37	54.2 ± 3.2 ef %	53.8 ± 2.51			
Cn1c2c(c3ccccc31)CC[N+](c1cccc(O)c1)=C2.[Br-] [Compound A15]	1.63	6.12 ± 0.61	51.8 ± 9.1 fg %	10 ± 0.59			
Cn1c2c(c3ccccc31)CC[N+](c1ccc(O)cc1)=C2.[Br-] [Compound A16]	9.96	2.81 ± 0.22	64.3 ± 0.3 cd %	28 ± 2.88			
COc1ccc([N+]2=Cc3c(c4ccccc4n3C)CC2)cc1.[Br-] [Compound A19]	46.9	2.92 ± 0.28	66.1 ± 0.5 c %	137 ± 0.79			
COc1ccc2c(c1)c1c(n2C)C=[N+](c2ccccc2)CC1.[Br-] [Compound A34]	18.4	2.04 ± 0.33	68.4 ± 2.8 c %	37.6 ± 2.84			
Cc1ccc2c(c1)c1c(n2C)C=[N+](c2ccccc2)CC1.[Br-] [Compound A35]	3.98	2.66 ± 0.37	70.3 ± 2.2 bc %	10.6 ± 0.58			
Cn1c2c(c3ccc(F)cc31)CC[N+](c1ccccc1)=C2.[Br-] [Compound A36]	3.00	4.74 ± 0.9	59.3 ± 2.1 de %	14.2 ± 0.44			
Cn1c2c(c3ccc(Cl)cc31)CC[N+](c1ccccc1)=C2.[Br-] [Compound A37]	2.91	4.02 ± 0.95	66.6 ± 4.7 c %	11.7 ± 0.5			
CCn1c2c(c3ccccc31)CC[N+](c1ccccc1)=C2.[Br-] [Compound A38]	2.82	3.69 ± 0.4	76.6 ± 3.7 a %	10.4 ± 0.4			
CCCn1c2c(c3ccccc31)CC[N+](c1ccccc1)=C2.[Br-] [Compound A39]	2.27	5.72 ± 0.66	67.1 ± 2.4 c %	13 ± 0.62			
CC(C)n1c2c(c3ccccc31)CC[N+](c1ccccc1)=C2.[Br-] [Compound A40]	4.37	3.73 ± 0.34	68.9 ± 5.1 bc %	16.3 ± 0.56			
C=CCn1c2c(c3ccccc31)CC[N+](c1ccccc1)=C2.[Br-] [Compound A41]	1.75	3.91 ± 0.36	74.4 ± 1.1 ab %	6.83 ± 0.2			

Compound	SI: selectivity index, ratio IC50 (BuChE)/IC50 (AChE) [1]	IC50 ([1]; read-out: IC50 ± S.D AChE) [µM]	Inhibition rate (%) [1, 3]	IC50 [2] [µM]	IC50 ([1]; Estimated values based on the results in Table 1 (inhibition rate at 10 μM), read-out: IC50 AChE, estimated values) [µM]	IC50 ([1]; 10 μM, read-out: IC50 AChE, NA) [µM]	inhibition at 10 µM ([1]; test concentration of the compound 10 μM, read-out: Inhibition rate (%)) [%]
CCCCn1c2c(c3ccccc31)CC[N+](c1ccccc1)=C2.[Br-] [Compound A42]	1.02	9.79 ± 3.55	53.9 ± 1.5 ef %	10 ± 0.68			
C1=[N+](c2ccccc2)CCc2c1[nH]c1ccccc21.[Br-] [Compound A46]		18.2 ± 1.97	41.3 ± 1.4 ij %	3.9 ± 0.53			
Cn1c2ccccc2c2cc[n+](-c3ccccc3F)cc21.[Br-] [Compound B2, 9-Methyl-2-(2-fluorophenyl)-β-carboline bromide]	3.49	6.65 ± 1.07	59.8 ± 3.2 n %	23 ± 0.53			
Cn1c2ccccc2c2cc[n+](-c3cccc(F)c3)cc21.[Br-] [Compound B3, 9-Methyl-2-(3-fluorophenyl)-β-carboline bromide]	15.3	4.73 ± 0.33	70.5 ± 2.2 l %	72.4 ± 4.25			
Cn1c2ccccc2c2cc[n+](-c3ccc(F)cc3)cc21.[Br-] [Compound B4, 9-Methyl-2-(4-fluorophenyl)-β-carboline bromide]	35.3	1.46 ± 0.12	84.3 ± 1.5 hi %	51.6 ± 2.43			
Cn1c2ccccc2c2cc[n+](-c3cccc(Cl)c3)cc21.[Br-] [Compound B6, 9-Methyl-2-(3-chlorophenyl)-β-carboline bromide]	3.40	9.65 ± 0.78	56.4 ± 2.5 no %	33.1 ± 1.07			
Cn1c2ccccc2c2cc[n+](-c3ccc(Cl)cc3)cc21.[Br-] [Compound B7, 9-Methyl-2-(4-chlorophenyl)-β-carboline bromide]	107.1	0.56 ± 0.07	91.2 ± 1.5 cde %	60 ± 1.52			
Cn1c2ccccc2c2cc[n+](-c3ccc(Br)cc3)cc21.[Br-] [Compound B10, 9-Methyl-2-(4-bromophenyl)-β-carboline bromide]	128.8	0.43 ± 0.04	95.4 ± 0.8 ab %	55.4 ± 1.73			
C=CCn1c2ccccc2c2cc[n+](-c3ccccc3)cc21.[Br-] [Compound B41, 9-Allyl-2-phenyl-β-carboline bromide]		1.18 ± 0.3	78.2 ± 1.6 k %				
CCCCn1c2ccccc2c2cc[n+](-c3ccccc3)cc21.[Br-] [Compound B42, 9-Butyl-2-phenyl-β-carboline bromide]		2.91 ± 0.33	65.7 ± 0.6 m %				
CC(C)Cn1c2ccccc2c2cc[n+](-c3ccccc3)cc21.[Br-] [Compound B43, 9-Iso-butyl-2-phenyl-β-carboline bromide]		0.98 ± 0.03	84.1 ± 0.6 hi %				
[Br-].c1ccc(Cn2c3ccccc3c3cc[n+](-c4ccccc4)cc32)cc1 [Compound B44, 9-Benzyl-2-phenyl-β-carboline bromide]		11.2 ± 2.54	47.8 ± 2.0 q %				
CCOC(=O)Cn1c2ccccc2c2cc[n+](-c3ccccc3)cc21.[Br-] [Compound B45, 9-(Ethoxy-2-oxyethyl)-2-phenyl-β-carboline bromide]			42.0 ± 0.7 rs %		> 10		
Br.c1ccc(-n2ccc3c4ccccc4nc-3c2)cc1 [Compound B46, 2-Phenyl-β-carboline bromide]		18 ± 2.42	43.0 ± 1.8 r %				
Cc1ccc(N2CCc3c(n(C)c4ccccc34)C2)cc1 [Compound C1, 9-methyl-2-p-toly-1,2,3,4-tetrahydro-β-carboline]						> 10	-2.3 ± 3.2
